Experiments:
HeLa Cells [1] = test: GFP plasmid transfection with DOTMA/DOPE plus surface ligand peptide, fluorescent plate reader (Example 1); format: cell-based; settings: DOTMA/DOPE + peptide linked to R12 or K16; EF1Alpha eGFP plasmid; 42 hours
Procedure: (§1) Cells were plated to so that on the day of transfection the cells were 70% confluent in 96 well tissue culture plates. A DOMTA/DOPE Lipid solution (1:1 molar ratio) at 2 mg/mL in water were mixed with an equal volume cell surface ligand containing adhesion peptide, the plant virus movement protein, or peptide derived therefrom, that had the nucleic acid binding moiety RRRRRRRRRRRR (SEQ ID NO:109) or KKKKKKKKKKKKKKKK (SEQ ID NO: 102) covalently linked to the N-terminus, or C-terminus of each peptide during peptide synthesis. Peptides were at 2 mg/mL in water. The DOTMA/DOPE and the solution containing the cell surface ligand containing adhesion peptide, the plant virus movement protein, or peptide derived therefrom, surface ligand peptide the was diluted 1 to 1 (v/v) in water. DOMTA/DOPE/PEPTIDE solutions were added to 0.1 mL of a plasmid DNA solution (EF1Alpha eGFP plasmid) at 10 μg/mL in OptiMEM.
(§2) All solutions were at room temperature. A volume of 0.2 mL of a 10 μg/mL solution of DNA was aliquoted into each well of a non-tissue cultured treated plate. 1-12 μL of transfection reagents were added to DNA solutions respectively. The transfection reagent and DNA solution was mixed by pipetting up and down twice. Transfection complexes were formed for 10 minutes. After 10 minutes, 0.01 or 0.02 mL of the transfection complex was added to cells. HuVEC, HeLa, human adult keratinocytes, human primary adult fibroblast, and A549 cells all respectively received 0.01 mL of the transfection complex. Human skeletal muscle cells, mouse C2C12 cells, and Jurkat, cells received 0.02 mL of the transfection complex. Cells were incubated for 42 hours at 37° C. at 5% CO2. Plates were read on a fluorescent plate reader. Cells were also examined visually under a microscope to assess the extent of transfection (in terms of the percent of cells transfected) with a fluorescent microscope. Other modes of analysis, for example quantification with B-galactocidase or luciferase reports plasmids can also be used.
(§3) Surface ligand that caused increase expression of GFP over the lipid DOTMA with no surface ligand were considered to enhance transfection or had higher % cells transfected were considered to enhance transfection. Peptides that gave greater than 2-fold enhancement are noted in bold and could be further optimized by adding different transfection enhancers or could be used with different cationic lipids or polymers.
(§4) Tables 2-7, below, provide the results of the transfection enhancements with the various cell types, while Table 8 lists the peptides that were determined by visual inspection to enhance the transfection of the denoted cell lines over the lipid DOTMA.

HuVec Cells = test: as above; format: cell-based; settings: DOTMA/DOPE + peptide linked to R12 or K16; EF1Alpha eGFP plasmid; 42 hours
Procedure: as §1, §2, §3, §4

Human Fibroblast Cells = test: as above; format: cell-based; settings: DOTMA/DOPE + peptide linked to R12 or K16; EF1Alpha eGFP plasmid; 42 hours
Procedure: as §1, §2, §3, §4

Jurkat Cells = test: as above; format: cell-based; settings: DOTMA/DOPE + peptide linked to R12 or K16; EF1Alpha eGFP plasmid; 42 hours
Procedure: as §1, §2, §3, §4

NL-1 iPS Cells = test: as above; format: cell-based; settings: DOTMA/DOPE + peptide linked to R12 or K16; EF1Alpha eGFP plasmid; 42 hours
Procedure: as §1, §2, §3, §4

C2C12 Cells = test: as above; format: cell-based, mouse; settings: DOTMA/DOPE + peptide linked to R12 or K16; EF1Alpha eGFP plasmid; 42 hours
Procedure: as §1, §2, §3, §4

HeLa Cells [2] = test: GFP transfection with DOTMA/SEQ ID NO: 72 (fusogenic peptide)/peptide compared with Lipofectamine 2000; format: cell-based
Procedure: as §1, §2
The fusogenic peptide was added to the DOMTA/peptide formulation to achieve a final concentration of 0.1 mg/mL to see if transfection reagents were further enhanced by the addition of a fusogenic peptide and could provide higher transfection efficiency into HeLa cells and expression than the commercially available Lipofectamine 2000.

some examined cell types = test: Summary of Example 1: transfection expression and % cells transfected over the no peptide control; format: cell-based; settings: on some examined cell types
Procedure: as §1, §2, §3

[3] = 0.1 μL of DOTMA/SEQ ID NO: 72/Peptide in well of a 96 well plate
[4] = 0.2 μL of DOTMA/SEQ ID NO: 72/Peptide in well of a 96 well plate
[5] = 0.3 μL of DOTMA/SEQ ID NO: 72/Peptide in well of a 96 well plate
[6] = 0.4 μL of DOTMA/SEQ ID NO: 72/Peptide in well of a 96 well plate

Substance | Relative Fluorescence of Transfection of HeLa Cells (RF) (HeLa Cells [1]) | Relative Fluorescence of Transfection of HuVec Cells (RF) (HuVec Cells) | Relative Fluorescence of Transfection of Human Fibroblast Cells (RF) (Human Fibroblast Cells) | Relative Fluorescence of Transfection of Jurkat Cells (RF) (Jurkat Cells) | Relative Fluorescence of Transfection of NL-1 iPS Cells (RF) (NL-1 iPS Cells) | Relative Fluorescence of Transfection of C2C12 Cells (RF) (C2C12 Cells) | Relative Fluorescence DOTMA/SEQ ID NO: 72/Peptide, HeLa Cells (RF) (HeLa Cells [2]; [3]) | Relative Fluorescence DOTMA/SEQ ID NO: 72/Peptide, HeLa Cells (RF) (HeLa Cells [2]; [4]) | Relative Fluorescence DOTMA/SEQ ID NO: 72/Peptide, HeLa Cells (RF) (HeLa Cells [2]; [5]) | Relative Fluorescence DOTMA/SEQ ID NO: 72/Peptide, HeLa Cells (RF) (HeLa Cells [2]; [6]) | transfection expression and % cells transfected over the no peptide control (some examined cell types)
369 (TAIPSCPEGTVPLYS) [compound 369] | 14444 | 6536 | 7590 | 11085 | 13124 | 3322 | 8737 | 16706 | 14880 | 12645 | increased transfection expression and the % cells transfected
357 (SETTVKYIFRLHE) [compound 357] | 22679 | 6009 | 7167 | 2256 | 15624 | 4506 | 7718 | 11798 | 9229 | 9107 | increased transfection expression and the % cells transfected
365 (ISRCQVCMKKRH) [compound 365] | 36093 | 14764 | 5219 | 5298 | 6364 | 5390 | 26620 | 43775 | 36054 | 21540 | increased transfection expression and the % cells transfected
377 (TAGSCLRRFSTM) [compound 377] | 15091 | 9326 | 6638 | 6785 | 5474 | 1710 | 39115 | 40072 | 32914 | 22457 | increased transfection expression and the % cells transfected
336 (GEFYFDLRLKGDK) [compound 336] | 25262 | 5366 | 10449 | 4813 | 14875 | 9647 | 14442 | 16702 | 13434 | 11334 | increased transfection expression and the % cells transfected
354 (SINNTAVMQRLT) [compound 354] | 4403 | 19284 | 4998 | 16705 | 24043 | 1912 | – | – | – | – | increased transfection expression and the % cells transfected
345 (TAGSCLRKFSTMFLF) [compound 345] | 8493 | 2939 | 2816 | 2462 | 7836 | 6569 | – | – | – | – | increased transfection expression and the % cells transfected
229 (PPFLMLLKGSTR) [compound 229] | 8816 | 5452 | 6811 | 8079 | 13491 | 1164 | – | – | – | – | increased transfection expression and the % cells transfected
230 (WQPPRARI) [compound 230] | 8944 | 9067 | 11771 | 10229 | 14524 | 2606 | – | – | – | – | increased transfection expression and the % cells transfected
220 (ATETTITIS) [compound 220] | 9398 | 8737 | 4516 | 6428 | 15892 | 1470 | – | – | – | – | increased transfection expression and the % cells transfected
338 (GTPGPQGIA) [compound 338] | 6241 | 12000 | 5625 | 4475 | 17288 | 2290 | – | – | – | – | increased transfection expression and the % cells transfected
332 (TWYKIAFQRNRK) [compound 332] | 9198 | 4221 | 5178 | 3052 | 8725 | 537 | – | – | – | – | increased transfection expression and the % cells transfected
256 (RQVFQVAYIIIKA) [compound 256] | 2243 | 3030 | 2656 | 3322 | 1825 | 3207 | – | – | – | – | increased transfection expression and the % cells transfected
352 (RIQNLLKITNLRIKFVK) [compound 352] | 32126 | 3130 | 3059 | 3150 | 11628 | 3324 | – | – | – | – | increased transfection expression and the % cells transfected

Reference: patent US20250154525A1, “PLANT VIRUS MOVEMENT PROTEINS AND METHODS OF USING SAME” (Molecular Transfer, Inc., priority 2016, published 2025)
